Assay results: patent US8088788B2, “Substituted fused[1,2] imidazo[4,5-c] ring compounds and methods” (3M Innovative Properties Company, priority 2006, dated 2012)

Q: Which melting point does the source give for `CC1CCc2nc3c(N)nc4ccccc4c3n2N1` (stereo not drawn) [Example 24, 10-Methyl-8,9,10,11-tetrahydropyridazino[1′,6′:1,2]imidazo[4,5-c]quinolin-6-amine] here?
A: The melting point was 241 to 243 °C.

Q: For `Cc1ccc(S(=O)(=O)n2ccc3nc4c(N)nc5ccccc5c4n32)cc1` [Example 25, 10-[(4-Methylphenyl)sulfonyl]-10H-pyrazolo[1′,5′:1,2]imidazo[4,5-c]quinolin-6-amine], which melting point is on record?
A: Its melting point is 204 to 206 °C.

Q: Which melting point does the source give for `Nc1nc2cc(Br)ccc2c2c1nc1n2CCCO1` [Example 7, 3-Bromo-10,11-dihydro-9H-[1,3]oxazino[3′,2′:1,2]imidazo[4,5-c]quinolin-6-amine] here?
A: Its melting point is 273 to 276 °C.

Q: For `C[C@@H]1CNc2nc3c(N)nc4ccccc4c3n21` [Example 28, (10R)-10-Methyl-9,10-dihydro-8H-imidazo[1′,2′:1,2]imidazo[4,5-c]quinolin-6-amine], which melting point is on record?
A: Its melting point is 272 to 274 °C.

Q: For `Nc1nc2ccccc2c2c1nc1n2CCCN1` [Example 5, 8,9,10,11-Tetrahydropyrimido[1′,2′:1,2]imidazo[4,5-c]quinolin-6-amine], which melting point is on record?
A: Its melting point is > 250 °C.

Q: For `C[C@H]1CNc2nc3c(N)nc4ccccc4c3n21` [Example 27, (10S)-10-Methyl-9,10-dihydro-8H-imidazo[1′,2′:1,2]imidazo[4,5-c]quinolin-6-amine], which melting point is on record?
A: The melting point was 265 to 273 °C.
